Measured values as given in patent US11026381B2, “Method for producing haploid, dihaploid and doubled haploid plants by isolated microspore culture” (Vilmorin & Cie, priority 2015, dated 2021).

Experiments:
[1] = tested on: isolated microspores of Cucumis sativus; test: Isolated microspore culture (IMC) of cucumber with HDACi and/or polyamine: formation and classification of multicellular structures; assay type: cell-based; conditions: for Classification of the multicellular structures / Response (% of formation of multicellular structures): no polyamine
Description: The solution of microspore is diluted to a concentration of about 30,000-150,000 cells/mL using a haemocytometer to count the microspore density. This is done in a Microspore Embryogenesis Induction Medium (MEIM), which components are described in Table 7. The solution is aliquoted by 4-6 mL into 60 mm×50 mm petri plates and sealed, for a heat shock of 24-72 hour at 30-33° C. in the dark.
The isolated microspores are then cultured in the dark at 22-28° C. for about four to five weeks until globular embryos can be seen by bare eyes.
The MEIM medium complemented with polyamine is referred to as a Microspore embryo development medium (MEDM) which components are described in Table 7.
One will note that the Response % is the percentage of formation of multicellular structures, not the analysis or classification of such structures as normal or abnormal. The last column (classification of the multicellular structures) reflects the observation of the multicellular structures according to criteria which defines whether they are normal or abnormal, i.e. uniformity of the cells, and compactness of the multicellular structures.

globular embryos = test: Elongation of globular embryos (bilayer culture system); assay type: cell-based, Cucumis sativus; conditions: in liquid embryo culture medium
Excerpt: In one embodiment, the LECM comprises one or more HDACi and/or one or more polyamines, preferably both HDACi and polyamine. The HDACi and/or the polyamine can be selected from the above lists, and can be present in any of the aforementioned quantities, in the LECM. In certain embodiments, the LECM further comprises plant growth regulators, in particular selected from auxins, cytokinins, gibberellins, abscisic acid, and mixtures thereof. In a preferred embodiment, the LECM comprises abscisic acid, in an amount effective to enable the development of the embryos. In particular, the LECM comprises from 0.5 to 5 ppm abscisic acid, still preferably from 1 to 2 ppm abscisic acid.
Globular embryos are visible after 20 to 40 days of culture in MEDM medium. To obtain elongated embryos, the inventors have used a bilayer culture system on a rotary shaker at 50-70 rpm in the dark for about 30 day, which has enabled the elongation of the embryos (FIG. 2E to 2G). The bilayer culture system is made of two layers, one lower solid medium made of MEEM with activated charcoal and solidified with 7 g/L agar (see Table 7) and one upper liquid medium, still made of MEDM supplemented with 1-2 ppm abscisic acid and containing the embryos to be elongated.

isolated microspores = test: Test of various compounds within the IMC media (all with SAHA 10 μM); assay type: cell-based, Cucumis sativus; conditions: in association with SAHA
Description: Isolated microspores are obtained according to the method described in Example 2, and cultured. […] All media comprise M404 basal medium and carbohydrates as in the MEIM composition described in Table 7, supplemented with 10 μM SAHA plus various other additional compounds. “Event” represents embryogenic callus or embryos.
The microspore cultures are evaluated for their production of multicellular structures and/or normal embryos.

`O=C(CCCCCCC(=O)Nc1ccccc1)NO` [SAHA, suberoylanilide hydroxamic acid] was tested. Which “Classification of the multicellular structures” value (shortened to “Classification”) ([1]; cultivar HMX4453, SAHA 10 μM) did it give?
The value was “Abnormal”.

What about the “Response (% of formation of multicellular structures)” value ([1]; cultivar HMX4453, SAHA 10 μM) of the same compound?
Its value is 9.6%.

And the “Classification” value ([1]; cultivar PI518848, SAHA 5 μM)?
The value was “Abnormal”.

What about the “Response (% of formation of multicellular structures)” value ([1]; cultivar PI518848, SAHA 5 μM) of the same compound?
The value was 13.7%.

And the “Classification” value ([1]; cultivar PI518848, SAHA 10 μM)?
Its value is “Abnormal”.

What about the “Response (% of formation of multicellular structures)” value ([1]; cultivar PI518848, SAHA 10 μM) of the same compound?
The value was 17.3%.

What about the multicellular microspore formations ([1]; isolated microspore cultures with SAHA but without polyamine) of the same compound?
Its multicellular microspore formations is “more present but are abnormal”.

How did the “effect on elongation of the embryos” value (globular embryos) turn out when `CC1=CC(=O)CC(C)(C)[C@@]1(O)/C=C/C(C)=C\C(=O)O` [Abscisic acid, abscisic acid] was run?
The value was “positive effect”.

With `NCCCCN` [Putrescine, putrescine] as the compound, how does the “development of normal embryos from the isolated microspores” value (isolated microspores) read?
Its value is “enable the development of normal embryos”.

`CC(/C=C/C(=O)NO)=C\[C@@H](C)C(=O)c1ccc(N(C)C)cc1` [TSA, trichostatin A] was tested. Which “response compared with SAHA” value ([1]; another HDACi tested in isolated microspore culture) did it give?
Its value is “lower response than for the SAHA”.

And the “Classification” value ([1]; cultivar PI518848, TSA 0.5 μM)?
Its value is “Abnormal”.

And the “Response (% of formation of multicellular structures)” value ([1]; cultivar PI518848, TSA 0.5 μM)?
The value was 4.3%.
